The results in this text go back to US20070010671A1, “Novel quinazoline derivatives and methods of treatment related to the use thereof” (priority 2003, published 2007).

In the assay the target is MCH receptor (Homo sapiens, UniProt Q99705). Kind of assay: High throughput functional screening FLIPR/FDSS6000: inhibition of MCH-evoked intracellular Ca2+ changes. Particulars: for IC50: read-out: class; for class: class by percent of control at 10^-7 M or IC50. The class given is cell-based. The method, boiled down:
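Antagonism is measured as inhibition of the intracellular calcium rise triggered by 50 nM MCH in cells bearing a constitutively active, non-endogenous form of the receptor. Cells are dye-loaded with Fluo4-AM and exposed to compound for 3 min at 37° C before agonist addition.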

[1] abbreviates: class by percent of control at 10^-7 M or by IC50.
Where [2] appears, read: class by percent of control at 10^−7 M or by IC50.

Like-named read-outs stand apart in the source and are kept apart here.

Consider `CN(C)c1nc(N[C@H]2CC[C@@H](CNC(=O)OCC(C)(C)C)CC2)nc2ccccc12` [compound 867], for which the IC50 under setting [1] is over 200 nM.

Turning to `COc1cc(COC(=O)NC[C@H]2CC[C@@H](Nc3nc(N(C)C)c4ccccc4n3)CC2)c([N+](=O)[O-])cc1OC` [compound 868], under setting [1], the IC50 was over 200 nM.

Turning to `CN(C)c1nc(N[C@H]2CC[C@@H](CNC(=O)Oc3cccc(C(F)(F)F)c3)CC2)nc2ccccc12` [compound 869], the IC50 under setting [1] is over 200 nM.

For `CN(C)c1nc(N[C@H]2CC[C@@H](CNC(=O)Oc3ccc(Br)cc3)CC2)nc2ccccc12` [compound 870], under setting [1], the IC50 is over 200 nM.

In the case of `COc1ccccc1OC(=O)NC[C@H]1CC[C@@H](Nc2nc(N(C)C)c3ccccc3n2)CC1` [compound 871], under setting [1], the IC50 is over 200 nM.

Regarding `COCCOC(=O)NC[C@H]1CC[C@@H](Nc2nc(N(C)C)c3ccccc3n2)CC1` [compound 872], the IC50 under setting [1] was over 200 nM.

With `CCCCCCCCOC(=O)NC[C@H]1CC[C@@H](Nc2nc(N(C)C)c3ccccc3n2)CC1` [compound 873], under setting [1], the IC50 was over 200 nM.

With `CCOC(=O)NC[C@H]1CC[C@@H](Nc2nc(N(C)C)c3ccccc3n2)CC1` [compound 874], the IC50 under setting [1] was over 200 nM.

`CN(C)c1nc(N[C@H]2CC[C@@H](CNC(=O)OCc3ccc([N+](=O)[O-])cc3)CC2)nc2ccccc12` [compound 875]: the IC50 under setting [1] was 50 to 200 nM.

`CN(C)c1nc(N[C@H]2CC[C@@H](CNC(=O)Oc3ccc4ccccc4c3)CC2)nc2ccccc12` [compound 876]: under setting [1], the IC50 was over 200 nM.

In the case of `C=CCOC(=O)NC[C@H]1CC[C@@H](Nc2nc(N(C)C)c3ccccc3n2)CC1` [compound 877], the IC50 under setting [1] is over 200 nM.

With `CN(C)c1nc(N[C@H]2CC[C@@H](CNC(=O)OCc3ccccc3)CC2)nc2ccccc12` [compound 878], the IC50 under setting [1] lay in the range of 50 to 200 nM.

Consider `CN(C)c1nc(N[C@H]2CC[C@@H](CNC(=O)Oc3ccccc3)CC2)nc2ccccc12` [compound 879], for which, under setting [1], the IC50 is over 200 nM.

As to `CC1CCC(C(C)C)C(OC(=O)NCC2CCC(Nc3nc(N(C)C)c4ccccc4n3)CC2)C1` (stereo not drawn) [compound 880], the IC50 under setting [1] is over 200 nM.

For the molecule `Cc1ccc(OC(=O)NC[C@H]2CC[C@@H](Nc3nc(N(C)C)c4ccccc4n3)CC2)cc1` [compound 881], the IC50 under setting [1] is over 200 nM.

`COC(=O)NC[C@H]1CC[C@@H](Nc2nc(N(C)C)c3ccccc3n2)CC1` [compound 882]: the IC50 under setting [1] is over 200 nM.

`CN(C)c1nc(N[C@H]2CC[C@@H](CNC(=O)OCc3ccccc3Cl)CC2)nc2ccccc12` [compound 883]: the IC50 under setting [1] was in the range of 50 to 200 nM.

Consider `CN(C)c1nc(N[C@H]2CC[C@@H](CNC(=O)OCC3c4ccccc4-c4ccccc43)CC2)nc2ccccc12` [compound 884], for which, under setting [1], the IC50 is over 200 nM.

Consider `CN(C)c1nc(N[C@H]2CC[C@@H](CNC(=O)OCC(Cl)(Cl)Cl)CC2)nc2ccccc12` [compound 885], for which the IC50 under setting [1] is over 200 nM.

For “N-(2,5-dimethylphenyl)-N′-[(cis-4-{[4-(dimethylamino)quinazolin-2-yl]amino}cyclohexyl)methyl]urea [compound 480]”, the class is recorded as 2 (Class 2: The value of percent of control at 10^−7 M was from 40% to 60% or the value of IC50 was from 50 nM to 200 nM.).

In the case of “N-(3,5-difluorobenzyl)-N′-[(cis-4-{[4-(dimethylamino)quinazolin-2-yl]amino}cyclohexyl)methyl]urea [compound 524]”, the class is 1 (Class 1: The value of percent of control at 10^−7 M was less than 40% or the value of IC50 was less than 50 nM.).

“N-(cis-4-{[4-(dimethylamino)quinazolin-2-yl]amino}cyclohexyl)-6-(3,4,5-trimethoxyphenoxy)nicotinamide [Example 1067]”: the IC50 under setting [2] lay in the range of 50 to 200 nM.

With “N-(cis-4-{[4-(dimethylamino)quinazolin-2-yl]amino}cyclohexyl)-6-(3-methylphenoxy)nicotinamide [Example 1055]”, the IC50 under setting [2] is under 50 nM.

“N-[3-(dimethylamino)propyl]-N′-[(cis-4-{[4-(dimethylamino)-quinazolin-2-yl]amino}cyclohexyl)methyl]thiourea [compound 807]”: the IC50 under setting [1] is over 200 nM.

For “N-[(cis-4-{[4-(dimethylamino)quinazolin-2-yl]amino}cyclohexyl)methyl]-N′-(2,4,6-tribromophenyl)urea [compound 475]”, the class is given as 1 (Class 1: The value of percent of control at 10^−7 M was less than 40% or the value of IC50 was less than 50 nM.).

For “N-[(cis-4-{[4-(dimethylamino)quinazolin-2-yl]amino}cyclohexyl)methyl]-N′-(2-methoxy-4-nitrophenyl)urea [compound 507]”, the class is given as 2 (Class 2: The value of percent of control at 10^−7 M was from 40% to 60% or the value of IC50 was from 50 nM to 200 nM.).

On to “N-[(cis-4-{[4-(dimethylamino)quinazolin-2-yl]amino}cyclohexyl)methyl]-N′-(2-methoxy-5-nitrophenyl)urea [compound 508]”, for which the class is 2 (Class 2: The value of percent of control at 10^−7 M was from 40% to 60% or the value of IC50 was from 50 nM to 200 nM.).
